Data as given in US10703764B2, “Benzopiperazine compositions as BET bromodomain inhibitors” (FORMA Therapeutics, Inc., priority 2013, dated 2020).

Tests used:
[1] = molecular target: T1, BRD4 BD2 (Homo sapiens, UniProt O60885); assay: AlphaScreen binding assay, BRD4 Bromodomain 2
T1 construct: made in house
Outline: (§1)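 An AlphaScreen competition format was used with His-BRD4 BD1 or BD2 and biotin-H4 K5/8/12/16-acetyl peptide, each at matched final levels of 50 nM (BD1) or 100 nM (BD2). Incubation in HEPES/NaCl buffer with 0.1% BSA and 0.01% Triton X-100 ran ≥1 h before IC50 determination.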

[2] = molecular target: T2, BRD4 BD1 (Homo sapiens, UniProt O60885); assay: AlphaScreen binding assay, BRD4 Bromodomain 1
T2 construct: made in house
Outline: as §1

[3] = test system: MV4-11 cells; assay: Oncology cell growth assay (3-day proliferation, CellTiter-Glo); type: cell-based; details: Homo sapiens, MV4-11, 72 h, AML cell line MV4-11, 72 hours, compounds grouped by IC50 range, read-out: MV4-11 IC50 (inhibition of proliferation, gIC50)
Outline: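 Luminescence from CellTiter-Glo served as the growth read-out after MV4-11 cells (3000/well) were cultured with compound for 72 hours. Final concentrations spanned 10 to 0.0045 μM in 3-fold steps. gIC50 values were derived by four-parameter logistic fitting relative to DMSO and cell-free controls.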

Compound	IC50 [1]	IC50 [2]	IC50 [3]
CC(=O)N1c2ccc(-c3cnn(C4CC4)c3)cc2N(C(=O)Oc2ccccc2C)C[C@@H]1C [Example I-509]	50 to 500 nM	100 to 1000 nM	100 to 500 nM
CC(=O)N1c2ccc(-c3cnn(C4CC4)c3)cc2N(C(=O)Oc2cccnc2)C[C@@H]1C [Example I-510]	< 50 nM	< 100 nM	100 to 500 nM
CC(=O)N1c2ccc(-c3cnn(C4CC4)c3)cc2N(C(=O)Oc2ccc(C)nc2)C[C@@H]1C [Example I-511]	< 50 nM	< 100 nM	100 to 500 nM
CC(=O)N1c2ccc(-c3cnn(C4CC4)c3)cc2N(C(=O)Oc2ccc3ncccc3c2)C[C@@H]1C [Example I-512]	< 50 nM	< 100 nM	< 100 nM
CC(=O)N1c2ccc(-c3cnn(C4CC4)c3)cc2N(C(=O)Oc2ccc3nc(C)ccc3c2)C[C@@H]1C [Example I-513]	50 to 500 nM	100 to 1000 nM	< 100 nM
CC(=O)N1c2ccc(-c3cnn(C4CC4)c3)cc2N(C(=O)Oc2cccc3ccc(C)nc23)C[C@@H]1C [Example I-515]	50 to 500 nM	100 to 1000 nM	< 100 nM
CC(=O)N1c2ccc(-c3cnn(C4CC4)c3)cc2N(C(=O)Oc2cccc(C)c2)C[C@@H]1C [Example I-517]	50 to 500 nM	100 to 1000 nM	< 100 nM
CC(=O)N1c2ccc(-c3cnn(C4CC4)c3)cc2N(C(=O)Oc2cccc(Cl)c2)C[C@@H]1C [Example I-518]	50 to 500 nM	100 to 1000 nM	100 to 500 nM
CC(=O)N1c2ccc(-c3cnn(C4CC4)c3)cc2N(C(=O)Oc2ccccc2F)C[C@@H]1C [Example I-519]	50 to 500 nM	100 to 1000 nM	< 100 nM
COc1ncccc1OC(=O)N1C[C@H](C)N(C(C)=O)c2ccc(-c3cnn(C4CC4)c3)cc21 [Example I-521]	< 50 nM	< 100 nM	< 100 nM
COc1c(OC(=O)N2C[C@H](C)N(C(C)=O)c3ccc(-c4cnn(C5CC5)c4)cc32)ccnc1C [Example I-522]	50 to 500 nM	100 to 1000 nM	< 100 nM
COc1ccc(OC(=O)N2C[C@H](C)N(C(C)=O)c3ccc(-c4cnn(C5CC5)c4)cc32)c(F)c1 [Example I-523]	50 to 500 nM	100 to 1000 nM	< 100 nM
COc1ccc(F)c(OC(=O)N2C[C@H](C)N(C(C)=O)c3ccc(-c4cnn(C5CC5)c4)cc32)c1 [Example I-524]	50 to 500 nM	100 to 1000 nM	< 100 nM
COc1ccc(C#N)cc1OC(=O)N1C[C@H](C)N(C(C)=O)c2ccc(-c3cnn(C4CC4)c3)cc21 [Example I-526]	50 to 500 nM	100 to 1000 nM	100 to 500 nM
CC(=O)N1c2ccc(-c3cnn(C4CC4)c3)cc2N(C(=O)Oc2ccc3ncsc3c2)C[C@@H]1C [Example I-527]	50 to 500 nM	100 to 1000 nM	< 100 nM
COc1cc(Cl)ccc1OC(=O)N1C[C@H](C)N(C(C)=O)c2ccc(-c3cnn(C4CC4)c3)cc21 [Example I-529]	< 50 nM	100 to 1000 nM	< 100 nM
COc1ccc(Cl)cc1OC(=O)N1C[C@H](C)N(C(C)=O)c2ccc(-c3cnn(C4CC4)c3)cc21 [Example I-530]	50 to 500 nM	100 to 1000 nM	< 100 nM
CC(=O)N1c2ccc(-c3ccc(C(=O)N4CC[C@@H](N)C4)cc3)cc2N(C(=O)OC(C)C)C[C@@H]1C [Example I-532]	50 to 500 nM	100 to 1000 nM	100 to 500 nM

Results, then the compound that gave them:

IC50 [1]	IC50 [2]	IC50 [3]	Compound
50 to 500 nM	100 to 1000 nM	< 100 nM	CC(=O)N1c2ccc(-c3ccc(C(=O)NCCN(C)C)cc3)cc2N(C(=O)OC(C)C)C[C@@H]1C [Example I-533]
50 to 500 nM	100 to 1000 nM	100 to 500 nM	CC(=O)N1c2ccc(-c3ccc(C(=O)NCC(N)=O)cc3)cc2N(C(=O)OC(C)C)C[C@@H]1C [Example I-534]
< 50 nM	100 to 1000 nM	100 to 500 nM	CCN(CC)C(=O)c1ccc(-c2ccc3c(c2)N(C(=O)OC(C)C)C[C@H](C)N3C(C)=O)cc1 [Example I-536]
50 to 500 nM	100 to 1000 nM	100 to 500 nM	CC(=O)N1c2ccc(-c3ccc(C(=O)N4CCCCC4)cc3)cc2N(C(=O)OC(C)C)C[C@@H]1C [Example I-537]
50 to 500 nM	100 to 1000 nM	100 to 500 nM	CC(=O)N1c2ccc(-c3ccc(C(=O)N4CCSCC4)cc3)cc2N(C(=O)OC(C)C)C[C@@H]1C [Example I-538]
50 to 500 nM	100 to 1000 nM	100 to 500 nM	CC(=O)N1c2ccc(-c3ccc(C(=O)N(C)CCN(C)C)cc3)cc2N(C(=O)OC(C)C)C[C@@H]1C [Example I-539]
< 50 nM	< 100 nM	< 100 nM	CC(=O)N[C@@H]1CCN(C(=O)c2ccc(-c3ccc4c(c3)N(C(=O)OC(C)C)C[C@H](C)N4C(C)=O)cc2)C1 [Example I-540]
50 to 500 nM	100 to 1000 nM	100 to 500 nM	CC(=O)N[C@H]1CCN(C(=O)c2ccc(-c3ccc4c(c3)N(C(=O)OC(C)C)C[C@H](C)N4C(C)=O)cc2)C1 [Example I-541]
< 50 nM	< 100 nM	< 100 nM	CC(=O)N1c2ccc(-c3ccc(C(=O)N4CC[C@@H](N(C)C)C4)cc3)cc2N(C(=O)OC(C)C)C[C@@H]1C [Example I-542]
< 50 nM	< 100 nM	< 100 nM	CC(=O)N1c2ccc(-c3ccc(C(=O)N4CC[C@H](N(C)C)C4)cc3)cc2N(C(=O)OC(C)C)C[C@@H]1C [Example I-543]
50 to 500 nM	100 to 1000 nM	100 to 500 nM	CC(=O)N1c2ccc(-c3ccc(C(=O)N4CCN(C)CC4)cc3)cc2N(C(=O)OC(C)C)C[C@@H]1C [Example I-544]
50 to 500 nM	100 to 1000 nM	100 to 500 nM	CC(=O)N1c2ccc(-c3ccc(C(=O)N4CCN(C=O)CC4)cc3)cc2N(C(=O)OC(C)C)C[C@@H]1C [Example I-545]
50 to 500 nM	100 to 1000 nM	100 to 500 nM	COC(=O)N1CCN(C(=O)c2ccc(-c3ccc4c(c3)N(C(=O)OC(C)C)C[C@H](C)N4C(C)=O)cc2)CC1 [Example I-546]
50 to 500 nM	100 to 1000 nM	100 to 500 nM	CC(=O)N1c2ccc(-c3ccc(C(=O)N4CCNC(=O)C4)cc3)cc2N(C(=O)OC(C)C)C[C@@H]1C [Example I-547]
50 to 500 nM	100 to 1000 nM	< 100 nM	CC(=O)N1CCN(C(=O)c2ccc(-c3ccc4c(c3)N(C(=O)OC(C)C)C[C@H](C)N4C(C)=O)cc2)CC1 [Example I-548]
50 to 500 nM	100 to 1000 nM	100 to 500 nM	CC(=O)N1c2ccc(-c3ccc(C(=O)N4CCN(S(C)(=O)=O)CC4)cc3)cc2N(C(=O)OC(C)C)C[C@@H]1C [Example I-549]
50 to 500 nM	< 100 nM	100 to 500 nM	CC(=O)N1c2ccc(-c3ccc(C(=O)N(C)CC(=O)N(C)C)cc3)cc2N(C(=O)OC(C)C)C[C@@H]1C [Example I-550]
50 to 500 nM	100 to 1000 nM	100 to 500 nM	CC(=O)N1c2ccc(-c3ccc(C(=O)N(C)CCN4CCCC4)cc3)cc2N(C(=O)OC(C)C)C[C@@H]1C [Example I-551]
50 to 500 nM	100 to 1000 nM	100 to 500 nM	CC(=O)N1c2ccc(-c3ccc(C(=O)N(C)c4ccccn4)cc3)cc2N(C(=O)OC(C)C)C[C@@H]1C [Example I-552]
